Experimental data from patent US20230183239A1, “ECTONUCLEOTIDE PYROPHOSPHATASE-PHOSPHODIESTERASE 1 (ENPP-1) INHIBITORS AND USES THEREOF” (AbbVie Inc., priority 2017, published 2023).

Experiments:
Format in all cases: biochemical
ENPP1 [1] = molecular target: T1, ENPP1 (Homo sapiens, UniProt P22413); experiment: ENPP1 enzyme assay with AMP-pNP substrate (hydrolysis of ATP analog); settings: AMP-pNP substrate (ATP analog); Ki from IC50 by Cheng-Prusoff; read-out: ENPP1 Inhibition _AMP-pNP: Ki
T1 sequence (P22413 1-925): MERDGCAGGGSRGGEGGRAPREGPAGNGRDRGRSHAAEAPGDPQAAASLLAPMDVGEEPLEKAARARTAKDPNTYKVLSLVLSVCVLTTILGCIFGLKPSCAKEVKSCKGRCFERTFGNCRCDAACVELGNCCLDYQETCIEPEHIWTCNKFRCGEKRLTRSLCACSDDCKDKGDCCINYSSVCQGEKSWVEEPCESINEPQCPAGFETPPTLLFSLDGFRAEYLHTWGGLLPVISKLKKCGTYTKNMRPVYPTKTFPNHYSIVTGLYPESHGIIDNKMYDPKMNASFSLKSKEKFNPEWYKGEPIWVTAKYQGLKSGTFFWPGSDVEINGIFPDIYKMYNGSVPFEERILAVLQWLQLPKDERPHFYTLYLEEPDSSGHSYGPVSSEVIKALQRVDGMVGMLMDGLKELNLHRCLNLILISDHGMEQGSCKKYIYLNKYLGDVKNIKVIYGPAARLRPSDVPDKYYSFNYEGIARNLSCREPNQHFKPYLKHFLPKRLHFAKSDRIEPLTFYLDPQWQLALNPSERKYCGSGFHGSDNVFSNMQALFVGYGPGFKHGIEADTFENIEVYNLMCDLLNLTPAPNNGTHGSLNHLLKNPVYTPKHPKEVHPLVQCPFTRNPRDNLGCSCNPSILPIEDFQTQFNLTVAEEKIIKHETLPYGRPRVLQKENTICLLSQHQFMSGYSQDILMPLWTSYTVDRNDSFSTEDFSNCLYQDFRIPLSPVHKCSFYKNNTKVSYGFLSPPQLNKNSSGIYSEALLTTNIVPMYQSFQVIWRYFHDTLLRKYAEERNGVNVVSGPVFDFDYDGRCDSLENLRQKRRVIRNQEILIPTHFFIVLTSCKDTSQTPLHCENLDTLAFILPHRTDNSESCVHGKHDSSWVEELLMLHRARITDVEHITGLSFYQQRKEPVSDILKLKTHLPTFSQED
Outline: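 Human recombinant ENPP1 (60 ng/well) with 300 µM AMP-pNP in 50 mM Tris-HCl pH 8.5, 250 mM NaCl, 0.5 mM CaCl2, 1 µM ZnCl2, 0.1% DMSO, 20 min at 37 °C.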

ENPP1 [2] = molecular target: T1, ENPP1; experiment: Indirect quantitation of 2',3'-cGAMP hydrolysis (AMP-Glo Assay kit); settings: cGAMP substrate; Ki from IC50 by Cheng-Prusoff; read-out: ENPP1 Inhibition -cGAMP: Ki
ENPP1 [3] = molecular target: T1, ENPP1; experiment: Substrate selectivity ratio, inhibition of cGAMP hydrolysis versus ATP hydrolysis; settings: ratio Ki AMP-pNP / Ki cGAMP
Experimental: The selectivity ratios for inhibition of cGAMP hydrolysis versus ATP hydrolysis were then calculated as follows: […]

Structure (SMILES)	Ki (ENPP1 [1]) [µM]	Ki (ENPP1 [2]) [µM]	Substrate Selectivity: Ki_AMP-pNP/Ki_cGAMP (ENPP1 [3])
COc1cc2ncnc(Nc3ccc(NS(N)(=O)=O)cc3)c2cc1OC [Example 114, N-(4-((6,7-dimethoxyquinazolin-4-yl)amino)phenyl)sulfamide]	> 1	< 0.1	>42.7
COc1ccc2c(Oc3ccc(S(N)(=O)=O)cc3)c(C)cnc2c1 [Example 359, 4-((7-methoxy-3-methylquinolin-4-yl)oxy)benzene sulfonamide]	0.1 to 1	< 0.1	54
COc1cc2ncc(C#N)c(-c3ccc(CNS(N)(=O)=O)cc3)c2cc1OC [Example 241, N-(4-(3-cyano-6,7-dimethoxyquinolin-4-yl)benzyl)sulfamide]	0.1 to 1	< 0.1	49.0
COc1cc2nccc(Oc3ccc(S(N)(=O)=O)cc3)c2cc1F [Example 74, 4-((6-fluoro-7-methoxyquinolin-4-yl)oxy)benzenesulfonamide]	< 0.1	< 0.1	22.5
COc1ccc2c(Oc3ccc(S(=N)(=O)O)cc3F)ccnc2c1 [Example 382, 3-fluoro-4-((7-methoxyquinolin-4-yl)oxy)benzene sulfonamide]	> 1	< 0.1	>142
COc1cc(F)c2c(-c3ccc(CNS(N)(=O)=O)cc3)ccnc2c1 [Example 394, N-(4-(5-fluoro-7-methoxyquinolin-4-yl)benzyl)sulfamide]	> 1	< 0.1	>95
COc1cc2ncnc(N3CCC4(CCNC4)CC3)c2cc1OC [Example 274, 8-(6,7-dimethoxyquinazolin-4-yl)-2,8-diazaspiro[4.5]decane]	> 1	0.1 to 1	>6.4
COc1ccc2c(NC(C)c3ccc(NS(N)(=O)=O)cc3)ncnc2c1 (stereo not drawn) [Example 279, N-(4-(1-((7-methoxyquinazolin-4-yl)amino)ethyl)phenyl)sulfamide]	0.1 to 1	< 0.1	24.2
COc1ccc2c(-c3ccc(CNS(N)(=O)=O)c(C)c3)ccnc2c1 [Example 374, N-(4-(7-methoxyquinolin-4-yl)-2-methylbenzyl) sulfamide]	> 1	< 0.1	>138
COc1cc2nccc(N3CCC(CCNS(=O)(=O)NC(C)=O)CC3)c2cc1OC [Example 203, N-(N-(2-(1-(6,7-dimethoxyquinolin-4-yl)piperidin-4-yl)ethyl)sulfamoyl)acetamide]	> 1	0.1 to 1	> 33.7
COc1cc2nccc(Oc3c(F)cc(NS(N)(=O)=O)cc3F)c2cc1OC [Example 197, N-(4-((6,7-dimethoxyquinolin-4-yl)oxy)-3,5-difluorophenyl)sulfamide]	> 1	< 0.1	>49.7
COc1ccc2c(Oc3ccc(NS(N)(=O)=O)cc3)cc(C)nc2c1 [Example 397, N-(4-((7-methoxy-2-methylquinolin-4-yl)oxy)phenyl)sulfamide]	0.1 to 1	< 0.1	>13
COc1ccc2c(-c3ccc(CN(C4CC4)S(N)(=O)=O)cc3)ccnc2c1 [Example 289, N-cyclopropyl-N-(4-(7-methoxyquinolin-4-yl)benzyl)sulfamide]	> 1	< 0.1	> 626
COc1ccc2c(Sc3ccc(NS(N)(=O)=O)cc3)ccnc2c1 [Example 302, N-(4-((7-methoxyquinolin-4-yl)thio)phenyl)sulfamide]	0.1 to 1	< 0.1	>13.0

Now from value to compound:

Ki (ENPP1 [1]) [µM]	Ki (ENPP1 [2]) [µM]	Substrate Selectivity: Ki_AMP-pNP/Ki_cGAMP (ENPP1 [3])	Structure (SMILES)
0.1 to 1	< 0.1	49	COc1ccc2c(N3CCC4(CC3)CCN(S(N)(=O)=O)C4)ccnc2c1 [Example 363, 8-(7-methoxyquinolin-4-yl)-2,8-diazaspiro[4.5]decane-2-sulfonamide]
> 1	< 0.1	>35.2	COc1cc2ncnc(NC3CCC(NS(N)(=O)=O)CC3)c2cc1OC (stereo not drawn) [Example 272, N-(4-((6,7-dimethoxyquinazolin-4-yl)amino)cyclohexyl)sulfamide]
> 1	0.1 to 1	>42.9	COc1nc2ncnc(N3CCC(CCNS(N)(=O)=O)CC3)c2n1C [Example 218, N-(2-(1-(8-methoxy-7-methyl-7H-purin-6-yl)piperidin-4-yl)ethyl)sulfamide]
< 0.1	< 0.1	6.3	COc1cc2nccc(NCc3ccc(S(N)(=O)=O)cc3)c2cc1F [Example 56, 4-(((6-fluoro-7-methoxyquinolin-4-,yl)amino)methyl)benzenesulfonamide]
< 0.1	< 0.1	23.7	COc1cc2nccc(-c3ccc(CN(C)S(N)(=O)=O)cc3)c2cc1OC [Example 61, N-(4-(6,7-dimethoxyquinolin-4-yl)benzyl)-N-methylsulfamide]
> 1	0.1 to 1	>16.2	COc1cc2nccc(Oc3cc(F)c(NS(N)(=O)=O)c(F)c3)c2cc1OC [Example 271, N-(4-((6,7-dimethoxyquinolin-4-yl)oxy)-2,6-difluorophenyl)sulfamide]
> 1	0.1 to 1	>119	COc1ccc2ncc(C#N)c(-c3ccc(CN(C4CC4)S(N)(=O)=O)cc3)c2c1 [Example 294, N-(4-(3-cyano-6-methoxyquinolin-4-yl)benzyl)-N-cyclopropylsulfamide]
> 1	0.1 to 1	>173	N#Cc1cnc2cc(OC(F)F)ccc2c1-c1ccc2c(c1)CN(S(N)(=O)=O)CC2 [Example 262, 7-(3-cyano-7-(difluoromethoxy)quinolin-4-yl)-3,4-dihydroisoquinoline-2(1H)-sulfonamide]
< 0.1	< 0.1	48.6	COc1ccc2c(N3CCC4(CC3)CCN(S(N)(=O)=O)C4)c(C#N)cnc2c1 [Example 248, 8-(3-cyano-7-methoxyquinolin-4-yl)-2,8-diazaspiro[4.5]decane-2-sulfonamide]
> 1	0.1 to 1	>28.0	COc1ccc2ncnc(-c3ccc(CNS(N)(=O)=O)cc3)c2c1 [Example 264, N-(4-(6-methoxyquinazolin-4-yl)benzyl)sulfamide]
0.1 to 1	< 0.1	189.2	COc1cc2ncnc(-c3ccc(CNS(N)(=O)=O)cc3)c2cc1OC [Example 144, N-(4-(6,7-dimethoxyquinazolin-4-yl)benzyl)sulfamide]
< 0.1	< 0.1	25	COc1ccc2c(N3CCc4cc(NS(N)(=O)=O)cc(F)c43)ccnc2c1 [Example 375, N-(7-fluoro-1-(7-methoxyquinolin-4-yl)indolin-5-yl)sulfamide]
0.1 to 1	< 0.1	>7.1	COc1ccc2c(Nc3ccc(NS(N)(=O)=O)cc3)ccnc2c1F [Example 269, N-(4-((8-fluoro-7-methoxyquinolin-4-yl)amino)phenyl)sulfamide]
> 1	< 0.1	> 16.4	COc1cc2ncnc(N3CCC(CCNS(=O)(=O)C(F)F)CC3)c2cc1OC [Example 208, N-(2-(1-(6,7-dimethoxyquinazolin-4-yl)piperidin-4-yl)ethyl)-1,1-difluoromethanesulfonamide]
0.1 to 1	< 0.1	18	COc1ccc2c(-c3ccc4c(c3)CN(S(N)(=O)=O)CC4)ccnc2n1 [Example 365, 7-(7-methoxy-1,8-naphthyridin-4-yl)-3,4-dihydroisoquinoline-2(1H)-sulfonamide]
